Data from patent US10172868B2, “Substituted quinazolines for inhibiting kinase activity” (NeuPharma, Inc., priority 2013, dated 2019).

What was measured:
FGFR1 = FGFR1 (Homo sapiens (Human), UniProt P11362); experiment: Z'-LYTE kinase inhibition assay, FGFR1; type: biochemical; settings: for inhibition at 0.041 µM: compound at 0.041 μM, read-out: % inhibition against FGFR1; for IC50: read-out: IC50 against FGFR1
Experimental: (§1) Inhibitory activities of compounds against BTK, EGFR and EGFR mutants (EGFR L858R, EGFR T790M, EGFR L858R/T790M), FGFR1, FGFR2, JAK2, JAK3 and KDR were measured by Invitrogen using Z'-LYTE® Method as briefly described in the following.
(§2) Test Compounds are screened in 1% DMSO (final) in the well. For 10 point titrations, 3-fold serial dilutions are conducted from the starting concentration. All ATP Solutions are diluted to a 4× working concentration in Kinase Buffer (50 mM HEPES pH 7.5, 0.01% BRIJ-35, 10 mM MgCl2, 1 mM EGTA). Peptide/Kinase Mixtures are diluted to a 2× working concentration in the appropriate Kinase Buffers as described below.
(v) Peptide/Kinase Mixtures for Measurement of FGFR1:
(§3) The 2×FGFR1/Tyr 04 mixture is prepared in 50 mM HEPES pH 7.5, 0.01% BRIJ-35, 10 mM MgCl2, 4 mM MnCl2, 1 mM EGTA, 2 mM DTT. The final 10 μL Kinase Reaction consists of 0.41-3.5 ng FGFR1 and 2 μM Tyr 04 in 50 mM HEPES pH 7.5, 0.01% BRIJ-35, 10 mM MgCl2, 2 mM MnCl2, 1 mM EGTA, 1 mM DTT. After the 1 hour Kinase Reaction incubation, 5 μL of a 1:64 dilution of Development Reagent B is added.
(§4) Reaction starts by 30-second shaking of mixture consisting of 2.5 μL 4× test compound, […] 2× kinase reaction mixture and 2.5 μL 4×ATP Solution on Bar-coded Corning, low volume NBS, black 384-well plate (Corning Cat. #3676). Then the mixture is incubated for 60-minute at room temperature for the kinase reaction, followed by addition of 5 μL of a 1:1024 dilution of development reagent A and 30-second plate shake. The mixture is then incubated for another 60-minute at room temperature for development reaction. Finally fluorescence is read by plate reader.
(§5) To determine IC50 of a compound against EGFR, EGFR mutant and other kinases, a series of concentrations of the compound were tested for the inhibition. […] The scale utilized in Table 4 is as follows: +++ less than 100 nM, ++ 100-500 nM and + greater than 500 nM.

BTK = BTK (Homo sapiens (Human), UniProt Q06187); experiment: Z'-LYTE kinase inhibition assay, BTK; type: biochemical; settings: for inhibition at 0.041 µM: compound at 0.041 μM, read-out: % inhibition against BTK; for IC50: read-out: IC50 against BTK
BTK, sequence (Q06187 whole entry): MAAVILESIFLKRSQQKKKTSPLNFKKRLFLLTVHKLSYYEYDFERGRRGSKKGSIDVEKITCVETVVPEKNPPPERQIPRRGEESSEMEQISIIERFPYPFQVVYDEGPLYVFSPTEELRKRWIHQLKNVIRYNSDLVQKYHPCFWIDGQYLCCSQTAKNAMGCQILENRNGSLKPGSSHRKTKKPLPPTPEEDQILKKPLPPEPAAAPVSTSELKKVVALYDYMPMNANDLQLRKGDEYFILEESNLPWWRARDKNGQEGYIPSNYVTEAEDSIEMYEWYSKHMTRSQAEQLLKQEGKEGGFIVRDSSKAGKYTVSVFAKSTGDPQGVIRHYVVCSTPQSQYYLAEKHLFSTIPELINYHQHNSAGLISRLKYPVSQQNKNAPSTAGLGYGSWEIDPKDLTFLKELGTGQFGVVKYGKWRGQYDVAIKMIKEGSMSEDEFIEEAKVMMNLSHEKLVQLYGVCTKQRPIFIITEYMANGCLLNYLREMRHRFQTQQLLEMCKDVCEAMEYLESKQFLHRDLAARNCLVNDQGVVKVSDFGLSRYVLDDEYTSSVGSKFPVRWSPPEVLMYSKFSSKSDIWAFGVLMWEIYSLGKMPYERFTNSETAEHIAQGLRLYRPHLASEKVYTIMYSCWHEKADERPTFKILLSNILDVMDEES
In short: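 Z'-LYTE FRET assay with Tyr 01 peptide in 50 mM HEPES pH 7.5, 10 mM MgCl2, 1 mM EGTA, 0.01% BRIJ-35. Compounds in 1% DMSO were tested as 10-point, 3-fold titrations.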

H1975 tumor xenografts = experiment: Inhibition of tumor growth in H1975 xenograft model; type: in vivo, BALB/c female nude mice; settings: QD x 14; for Tumor Volume Pre-treatment: baseline before treatment
Experimental: H1975 cells were implanted in BALB/c female nude mice and grown as tumor xenografts. When tumors achieved 120-200 mm^3, mice were assigned into treatment and control groups using randomized block design based upon their tumor volumes. Each group contained 6 tumor-bearing mice. Tumors were measured twice weekly in two dimensions using a caliper, and the tumor volume was calculated from two-dimensional measurements using the equation V=0.5×a×b^2 where a and b are the long and short diameters of the tumor, respectively. Relative tumor volume (RTV) was defined as TVt/TVi, the ratio of the volume on a given day (TVt) and the volume at the start of treatment (TVi). Relative tumor growth rate (T/C) was defined as RTVT/RTVC, the ratio of relative tumor volume of treatment group (RTVT) and relative tumor volume of control group (RTVC) on a given day.

FGFR2 = FGFR2 (Homo sapiens (Human), UniProt P21802); experiment: Z'-LYTE kinase inhibition assay, FGFR2; type: biochemical; settings: read-out: IC50 against FGFR2
FGFR2, sequence (P21802 22-821): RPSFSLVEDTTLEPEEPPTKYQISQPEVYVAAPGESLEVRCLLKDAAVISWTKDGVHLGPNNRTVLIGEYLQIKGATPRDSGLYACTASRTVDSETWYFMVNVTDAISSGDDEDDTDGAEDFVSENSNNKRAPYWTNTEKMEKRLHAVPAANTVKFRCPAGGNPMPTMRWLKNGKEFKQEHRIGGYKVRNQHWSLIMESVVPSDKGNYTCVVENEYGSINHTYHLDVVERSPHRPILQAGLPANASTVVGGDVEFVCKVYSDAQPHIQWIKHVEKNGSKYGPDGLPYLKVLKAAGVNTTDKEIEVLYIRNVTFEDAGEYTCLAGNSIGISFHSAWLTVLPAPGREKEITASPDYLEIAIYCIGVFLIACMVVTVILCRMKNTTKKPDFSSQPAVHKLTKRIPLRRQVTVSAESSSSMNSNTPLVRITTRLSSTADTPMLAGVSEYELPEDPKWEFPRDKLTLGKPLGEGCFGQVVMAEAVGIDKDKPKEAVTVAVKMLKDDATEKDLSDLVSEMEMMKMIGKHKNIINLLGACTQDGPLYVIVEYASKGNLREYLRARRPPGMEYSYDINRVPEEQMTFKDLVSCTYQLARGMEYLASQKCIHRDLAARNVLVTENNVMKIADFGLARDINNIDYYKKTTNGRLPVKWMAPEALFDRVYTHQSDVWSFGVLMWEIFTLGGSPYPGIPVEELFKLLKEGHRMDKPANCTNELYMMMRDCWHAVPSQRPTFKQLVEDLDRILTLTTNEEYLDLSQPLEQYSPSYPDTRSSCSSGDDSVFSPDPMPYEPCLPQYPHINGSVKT
Experimental: as §1, §2
(v) Peptide/Kinase Mixtures for Measurement of FGFR2:
as §3, with “2×FGFR2/Tyr” for “2×FGFR1/Tyr”, “0.19-2.36” for “0.41-3.5”, “FGFR2” for “FGFR1”
Reaction starts by 30-second shaking of mixture consisting of 2.5 μL 4× test compound, […] 2× kinase reaction mixture and 2.5 μL 4×ATP Solution on Bar-coded Corning, low volume NBS, black 384-well plate (Corning Cat. #3676). […] Finally fluorescence is read by plate reader. […]

KDR (VEGFR2) = KDR (VEGFR2) (Homo sapiens (Human), UniProt P35968); experiment: Z'-LYTE kinase inhibition assay, KDR; type: biochemical; settings: read-out: IC50 against KDR
KDR (VEGFR2), sequence (P35968 20-1356): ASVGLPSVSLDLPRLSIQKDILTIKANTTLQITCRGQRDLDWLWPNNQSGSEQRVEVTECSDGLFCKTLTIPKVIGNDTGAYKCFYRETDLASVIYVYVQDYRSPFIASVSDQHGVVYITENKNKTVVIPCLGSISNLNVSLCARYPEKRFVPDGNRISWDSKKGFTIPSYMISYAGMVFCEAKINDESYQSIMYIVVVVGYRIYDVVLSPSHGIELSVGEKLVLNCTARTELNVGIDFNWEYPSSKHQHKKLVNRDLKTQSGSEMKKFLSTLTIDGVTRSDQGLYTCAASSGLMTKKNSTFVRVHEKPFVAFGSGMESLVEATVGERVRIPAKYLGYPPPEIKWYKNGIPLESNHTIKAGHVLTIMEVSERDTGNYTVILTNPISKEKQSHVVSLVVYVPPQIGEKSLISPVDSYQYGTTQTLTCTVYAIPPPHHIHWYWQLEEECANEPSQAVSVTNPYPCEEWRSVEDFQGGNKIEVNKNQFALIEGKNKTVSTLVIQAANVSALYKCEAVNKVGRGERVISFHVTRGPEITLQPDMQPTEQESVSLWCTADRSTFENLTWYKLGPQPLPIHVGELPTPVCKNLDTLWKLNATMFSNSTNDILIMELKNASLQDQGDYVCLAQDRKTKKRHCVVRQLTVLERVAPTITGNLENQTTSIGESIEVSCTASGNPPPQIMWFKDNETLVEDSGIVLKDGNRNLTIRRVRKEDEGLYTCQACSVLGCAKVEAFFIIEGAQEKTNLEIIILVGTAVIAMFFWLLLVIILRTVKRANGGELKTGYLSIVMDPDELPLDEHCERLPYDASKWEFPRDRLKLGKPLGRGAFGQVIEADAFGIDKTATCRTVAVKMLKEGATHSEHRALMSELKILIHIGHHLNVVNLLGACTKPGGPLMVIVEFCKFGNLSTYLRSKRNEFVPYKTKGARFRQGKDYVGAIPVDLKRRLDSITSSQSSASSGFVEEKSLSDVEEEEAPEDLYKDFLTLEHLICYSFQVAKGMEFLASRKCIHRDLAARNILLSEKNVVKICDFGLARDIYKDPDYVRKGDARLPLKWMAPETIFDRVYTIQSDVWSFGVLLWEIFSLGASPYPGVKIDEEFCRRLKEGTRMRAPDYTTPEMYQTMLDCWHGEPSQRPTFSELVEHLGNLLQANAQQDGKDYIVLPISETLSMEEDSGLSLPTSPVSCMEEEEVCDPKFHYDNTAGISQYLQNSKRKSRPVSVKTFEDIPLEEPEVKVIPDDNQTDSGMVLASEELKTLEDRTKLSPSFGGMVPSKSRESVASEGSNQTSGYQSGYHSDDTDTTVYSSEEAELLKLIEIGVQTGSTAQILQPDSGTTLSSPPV
Experimental: as §1, §2
(v) Peptide/Kinase Mixtures for Measurement of KDR (VEGFR2):
The 2×KDR (VEGFR2)/Tyr 01 mixture is prepared in 50 mM HEPES pH 7.5, 0.01% BRIJ-35, 10 mM MgCl2, 1 mM EGTA. The final 10 μL Kinase Reaction consists of 0.5-11.7 ng KDR (VEGFR2) and 2 μM Tyr 01 in 50 mM HEPES pH 7.5, 0.01% BRIJ-35, 10 mM MgCl2, 1 mM EGTA. After the 1 hour Kinase Reaction incubation, 5 μL of a 1:256 dilution of Development Reagent B is added.
as §4, §5

JAK3 = JAK3 (Homo sapiens (Human), UniProt P52333); experiment: Z'-LYTE kinase inhibition assay, JAK3; type: biochemical; settings: read-out: IC50 against JAK3
JAK3, sequence (P52333 whole entry): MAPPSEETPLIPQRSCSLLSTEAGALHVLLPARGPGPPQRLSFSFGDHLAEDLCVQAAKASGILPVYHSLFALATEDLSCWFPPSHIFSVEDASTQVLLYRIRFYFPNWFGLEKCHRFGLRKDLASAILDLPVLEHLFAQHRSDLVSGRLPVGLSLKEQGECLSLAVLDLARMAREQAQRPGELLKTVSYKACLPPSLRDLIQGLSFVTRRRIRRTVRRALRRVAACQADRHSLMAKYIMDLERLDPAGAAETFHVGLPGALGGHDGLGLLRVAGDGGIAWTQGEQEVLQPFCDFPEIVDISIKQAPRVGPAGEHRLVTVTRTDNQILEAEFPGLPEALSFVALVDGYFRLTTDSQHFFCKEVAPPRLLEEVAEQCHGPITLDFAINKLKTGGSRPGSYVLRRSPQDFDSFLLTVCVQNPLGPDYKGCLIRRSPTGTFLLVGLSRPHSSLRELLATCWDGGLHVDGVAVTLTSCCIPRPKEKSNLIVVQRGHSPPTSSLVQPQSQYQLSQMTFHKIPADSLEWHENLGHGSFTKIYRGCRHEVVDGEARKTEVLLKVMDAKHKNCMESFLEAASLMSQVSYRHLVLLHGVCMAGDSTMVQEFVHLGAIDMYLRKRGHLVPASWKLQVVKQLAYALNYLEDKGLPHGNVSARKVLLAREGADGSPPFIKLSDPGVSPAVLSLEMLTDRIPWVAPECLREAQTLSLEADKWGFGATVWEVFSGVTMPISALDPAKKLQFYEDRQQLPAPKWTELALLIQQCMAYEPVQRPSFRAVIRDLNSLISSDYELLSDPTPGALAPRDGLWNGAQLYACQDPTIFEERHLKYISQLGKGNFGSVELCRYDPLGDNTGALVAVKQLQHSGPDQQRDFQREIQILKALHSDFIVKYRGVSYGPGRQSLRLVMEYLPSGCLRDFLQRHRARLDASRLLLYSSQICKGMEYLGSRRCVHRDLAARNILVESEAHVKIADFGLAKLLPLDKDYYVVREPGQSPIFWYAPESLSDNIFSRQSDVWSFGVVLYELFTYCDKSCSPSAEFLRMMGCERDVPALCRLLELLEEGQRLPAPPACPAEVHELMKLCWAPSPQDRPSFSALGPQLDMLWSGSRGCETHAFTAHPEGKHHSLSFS
Experimental: as §1, §2
(v) Peptide/Kinase Mixtures for Measurement of JAK3:
The 2×JAK3/Tyr 06 mixture is prepared in 50 mM HEPES pH 7.5, 0.01% BRIJ-35, 10 mM MgCl2, 1 mM EGTA. The final 10 μL Kinase Reaction consists of 0.29-1.34 ng JAK3 and 2 μM Tyr 06 in 50 mM HEPES pH 7.5, 0.010/% BRIJ-35, 10 mM MgCl2, 1 mM EGTA. After the 1 hour Kinase Reaction incubation, 5 μL of a 1:64 dilution of Development Reagent A is added.
as §4, §5

[1] = 30 mg/kg, Intraperitoneal injection

FGFR1, sequence (P11362 22-822): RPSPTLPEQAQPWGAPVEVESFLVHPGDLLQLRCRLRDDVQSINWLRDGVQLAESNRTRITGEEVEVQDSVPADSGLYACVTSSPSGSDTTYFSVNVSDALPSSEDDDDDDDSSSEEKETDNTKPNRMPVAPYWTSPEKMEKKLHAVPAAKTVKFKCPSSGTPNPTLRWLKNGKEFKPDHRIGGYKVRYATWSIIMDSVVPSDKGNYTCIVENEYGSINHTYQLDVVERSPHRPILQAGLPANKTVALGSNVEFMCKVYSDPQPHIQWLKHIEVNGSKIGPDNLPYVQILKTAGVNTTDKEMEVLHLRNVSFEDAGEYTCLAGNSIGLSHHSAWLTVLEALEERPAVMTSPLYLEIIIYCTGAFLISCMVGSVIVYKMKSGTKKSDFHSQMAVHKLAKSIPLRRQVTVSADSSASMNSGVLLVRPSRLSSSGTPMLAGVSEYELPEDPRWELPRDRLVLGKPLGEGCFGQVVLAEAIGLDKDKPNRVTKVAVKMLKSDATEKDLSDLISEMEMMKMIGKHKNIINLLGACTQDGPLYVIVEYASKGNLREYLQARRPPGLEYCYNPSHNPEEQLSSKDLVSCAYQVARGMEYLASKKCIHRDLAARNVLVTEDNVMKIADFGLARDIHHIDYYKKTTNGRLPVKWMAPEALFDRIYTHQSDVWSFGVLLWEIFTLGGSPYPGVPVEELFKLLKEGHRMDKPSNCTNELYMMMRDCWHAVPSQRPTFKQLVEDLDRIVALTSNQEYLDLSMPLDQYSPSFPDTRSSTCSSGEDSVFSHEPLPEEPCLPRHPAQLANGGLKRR

| Structure (SMILES) | inhibition at 0.041 µM (FGFR1) [%] | inhibition at 0.041 µM (BTK) [%] | IC50 (BTK) [nM] | IC50 (JAK3) [nM] | other results |
| --- | --- | --- | --- | --- | --- |
| C=CC(=O)Nc1cccc(-c2cccc3cnc(Nc4ccc(N5CCOCC5)cc4)nc23)c1 [Example C001, N-(3-(2-((4-morpholinophenyl)amino)quinazolin-8-yl)phenyl)acrylamide] | > 50 | > 50 | – | – | – |
| c1ccc(-c2cccc3cnc(Nc4ccc(N5CCOCC5)cc4)nc23)cc1 [Example C004, N-(4-morpholinophenyl)-8-phenylquinazolin-2-amine] | – | < 50 | – | – | – |
| C=CC(=O)Nc1cccc(-c2nccc3c(N)nc(Nc4ccc(N5CCOCC5)cc4)nc23)c1 [Example C005, N-(3-(4-amino-2-((4-morpholinophenyl)amino)pyrido[3,4-d]pyrimidin-8-yl)phenyl)acrylamide] | – | > 50 | – | – | – |
| Clc1cccc(-c2cccc3cnc(Nc4ccc(N5CCOCC5)cc4)nc23)c1 [Example C008, 8-(3-chlorophenyl)-N-(4-morpholinophenyl)quinazolin-2-amine] | < 50 | < 50 | – | – | – |
| Fc1cccc(-c2cccc3cnc(Nc4ccc(N5CCOCC5)cc4)nc23)c1 [Example C009, 8-(3-fluorophenyl)-N-(4-morpholinophenyl)quinazolin-2-amine] | – | < 50 | – | – | – |
| C=CC(=O)Nc1cccc(-c2nccc3cnc(Nc4ccc(N5CCOCC5)cc4)nc23)c1 [Example C012, N-(3-(2-((4-morpholinophenyl)amino)pyrido[3,4-d]pyrimidin-8-yl)phenyl)acrylamide] | – | > 50 | – | – | – |
| C=CC(=O)Nc1cccc(-c2cccc3cnc(Nc4ccc(N5CCN(C)CC5)cc4)nc23)c1 [Example C021, N-(3-(2-((4-(4-methylpiperazin-1-yl)phenyl)amino)quinazolin-8-yl)phenyl)acrylamide] | > 50 | > 50 | < 100 | < 100 | T/C (relative tumor growth rate) (H1975 tumor xenografts; 60 mg/kg, Oral): 30.5%; Tumor Volume Post-treatment (H1975 tumor xenografts; 60 mg/kg, Oral): 633.5 mm^3; Tumor Volume Pre-treatment (H1975 tumor xenografts; 60 mg/kg, Oral): 152.5 mm^3; IC50 (FGFR1): < 100 nM; IC50 (FGFR2): < 100 nM; IC50 (KDR (VEGFR2)): < 100 nM |
| C=CC(=O)Nc1cccc(-c2cccc3cnc(Nc4ccc(N5CCN(C)CC5)nc4)nc23)c1 [Example C041, N-(3-(2-((6-(4-methylpiperazin-1-yl)pyridin-3-yl)amino)quinazolin-8-yl)phenyl)acrylamide] | – | – | < 100 | < 100 | T/C (relative tumor growth rate) (H1975 tumor xenografts; [1]): 48.7%; Tumor Volume Post-treatment (H1975 tumor xenografts; [1]): 1021.2 mm^3; Tumor Volume Pre-treatment (H1975 tumor xenografts; [1]): 151.7 mm^3; IC50 (FGFR1): < 100 nM; IC50 (KDR (VEGFR2)): < 100 nM |
| C=CC(=O)Nc1cccc(-c2cccc3cnc(Nc4ccc(N5CCN(C)CC5)cc4F)nc23)c1 [Example C044, N-(3-(2-((2-fluoro-4-(4-methylpiperazin-1-yl)phenyl)amino)quinazolin-8-yl)phenyl)acrylamide] | < 50 | – | < 100 | < 100 | – |
| C=CC(=O)Nc1cccc(-c2cccc3cnc(Nc4ccc(N5CCN(CCF)CC5)cc4)nc23)c1 [Example C053, N-(3-(2-((4-(4-(2-fluoroethyl)piperazin-1-yl)phenyl)amino)quinazolin-8-yl)phenyl)acrylamide] | > 50 | > 50 | – | – | – |
| C=CC(=O)Nc1cccc(-c2cccc3cnc(Nc4ccc(N5CCN(CCO)CC5)cc4)nc23)c1 [Example C059, N-(3-(2-((4-(4-(2-hydroxyethyl)piperazin-1-yl)phenyl)amino)quinazolin-8-yl)phenyl)acrylamide] | > 50 | – | < 100 | < 100 | T/C (relative tumor growth rate) (H1975 tumor xenografts; 60 mg/kg, Oral): 35.3%; Tumor Volume Post-treatment (H1975 tumor xenografts; 60 mg/kg, Oral): 746.4 mm^3; Tumor Volume Pre-treatment (H1975 tumor xenografts; 60 mg/kg, Oral): 151.6 mm^3; IC50 (FGFR1): < 100 nM; IC50 (KDR (VEGFR2)): < 100 nM |
